The values that follow come from ChEMBL document CHEMBL1138916, “Design and synthesis of the first generation of dithiolane thiazolidinedione- and phenylacetic acid-based PPARgamma agonists” (J Med Chem, 2006).

For orientation: EC50 means the concentration needed to bring the measured effect to its halfway point. Broadly, the IC50 is the concentration that inhibits the measured activity by half. What is called Inhibition is the change of the read-out against control, counted positive when it falls. Usually solubility stands for how much of the substance goes into solution per volume.

Converted amounts (≈) assume the structure as drawn. “And” between values parts separate entries of the source, which are not always exact repeats. Identical values can stand only once. The source made the active and inactive calls. The calls are words filed in the database; no cut-off is given here.

Data set [1] addresses T1, Peroxisome proliferator-activated receptor gamma (Homo sapiens, UniProt P37231).
T1 sequence (P37231 whole entry): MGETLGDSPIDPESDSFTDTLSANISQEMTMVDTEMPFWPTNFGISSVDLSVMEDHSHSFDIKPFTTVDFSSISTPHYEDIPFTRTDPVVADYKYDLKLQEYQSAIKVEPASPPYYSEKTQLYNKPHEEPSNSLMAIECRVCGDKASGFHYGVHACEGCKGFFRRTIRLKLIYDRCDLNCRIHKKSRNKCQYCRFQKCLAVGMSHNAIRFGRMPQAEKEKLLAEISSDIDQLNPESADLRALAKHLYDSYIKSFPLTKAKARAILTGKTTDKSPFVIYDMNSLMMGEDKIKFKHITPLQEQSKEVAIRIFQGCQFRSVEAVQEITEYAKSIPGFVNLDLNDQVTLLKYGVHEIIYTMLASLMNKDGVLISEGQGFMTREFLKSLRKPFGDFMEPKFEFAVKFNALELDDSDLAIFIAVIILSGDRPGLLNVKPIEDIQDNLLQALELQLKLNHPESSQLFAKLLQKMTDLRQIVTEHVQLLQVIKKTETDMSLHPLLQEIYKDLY
Description: Transactivation of PPARgamma in CV1 cells

Data set [2] addresses T2, Peroxisome proliferator-activated receptor gamma (Homo sapiens) (UniProt P37231).
T2 sequence (whole entry): T1 sequence (P37231 whole entry)
In words: Transactivation of PPARgamma at 10 uM in CV1 cells. The data set is classed as functional, cell-based. The conditions noted are these: CV-1.

The target in data set [3] is T2, Peroxisome proliferator-activated receptor gamma (Homo sapiens). In words: Transactivation of PPARgamma up to 30 uM in CV1 cells. The data set is classed as functional, cell-based. The conditions noted are these: CV-1.
The subject of another data set is HT-29. In words: Antiproliferative activity against human HT29 cell line. The data set is classed as functional, cell-based.
A further data set relates to MCF7. In words: Antiproliferative activity against human MCF7 cell line. It is filed as functional, cell-based.
The test system of data set [4] is T-cell. In words: Inhibition of PHA/PMA-induced IL2 production in human T lymphocytes. It is filed as functional.
Another data set concerns Keratinocyte. Description: Antiproliferative activity against human keratinocytes. It is filed as functional, cell-based.
In another data set the test system is 3T3-L1. In words: Induction of adipogenesis in mouse 3T3 L1 preadipocytes. The data set is classed as functional, cell-based.
Data set [5] has as its system Rattus norvegicus. In words: Reduction in triglycerides level in Zucker fa/fa rat at 100 mg/kg relative to control. Details: scale not given: the % may be the effect or the level left. It is filed as functional.
Data set [6] concerns T-cell. Description: Inhibition of PHA/PMA-induced IL2 production in human T lymphocytes at 10 uM. The data set is classed as functional, cell-based.
Data set [7] deals with Rattus norvegicus. In words: Reduction in glucose level in Zucker fa/fa rat at 100 mg/kg relative to control. The data set is classed as functional.
The nature of data set [8]: Solubility in water. It is filed as physicochemical.

In the case of `CN(CCCCC1CCSS1)CCOc1ccc(CC2SC(=O)NC2=O)cc1` (stereo unspecified) [listing 1 of 3 here], the midpoint of the response in data set [1], the EC50, lay at 11100 nM.

In [2], `CC(=O)SC(CCCCC(=O)N(C)CCOc1ccc(CC2SC(=O)NC2=O)cc1)CCSC(=O)CCC(=O)O` (stereo unspecified) showed an Activity of 168. This molecule also registered an EC50 in data set [1] of 150 nM.

Regarding `COC(=O)Cc1ccc(OCCCN(C)C(=O)CCCCC2CCSS2)c(Cl)c1` (stereo unspecified), in [1], the EC50 is 18500 nM.

`CN(C(=O)CCCCC1CCSS1)c1ccc(CC2SC(=O)NC2=O)cc1` (stereo unspecified): the outcome in data set [3] was inactive.

Take `CN(CCOc1ccc(CC2SC(=O)NC2=O)cc1)c1ccccn1` (stereo unspecified) [ROSIGLITAZONE]: the results for the half-inhibitory concentration (IC50) in the data set with HT-29, with MCF7 and in the data set on Keratinocyte were 45 µM, > 50 µM and 8000 nM, respectively. In the data set on T-cell [4], this molecule came in with an Inhibition of 75%.

As to `CC(=O)SCCC(CCCCC(=O)N(C)CCOc1ccc(CC2SC(=O)NC2=O)cc1)SC(C)=O` (stereo unspecified), in data set [2], the Activity amounted to 150. Moreover, the EC50 in data set [1] came out at 39 nM.

For `CN(CCOc1ccc(CC2SC(=O)NC2=O)cc1)C(=O)CCCCC1CCSS1` (stereo unspecified), the result in the data set on 3T3-L1 and in the data set on T-cell [6] was Active. In addition, the IC50 with HT-29 amounted to 10 µM; with MCF7, 15 µM; in the data set on Keratinocyte, 600 nM. Also, the Activity is 83% and 54 mg/dl with Rattus norvegicus [5]; 180 mg/dL in the data set with Rattus norvegicus [7]. This molecule also came in with an Inhibition in the data set on T-cell [4] of 92%. This molecule registered a solubility in data set [8] of 39 µg/mL (≈ 83.2 µM). The molecule also registered an EC50 in data set [1] of 15 nM.

Take `CC(=O)SC(CCCCC(=O)N(C)CCOc1ccc(CC2SC(=O)NC2=O)cc1)CCSC(=O)CN` (stereo unspecified): in data set [2], the Activity was 138. Besides, the response in [1] was half-maximal at 195 nM (EC50).

In the case of `COC(=O)Cc1ccc(OCCN(C)C(=O)CCCCC2CCSS2)c(Cl)c1` (stereo unspecified), the outcome in data set [3] was inactive.

Consider `CN(CCOc1ccc(CC2SC(=O)NC2=O)cc1)C(=O)CCC1CCSS1` (stereo unspecified), for which, in data set [3], the outcome was inactive.

In [2], `CN(CCOc1ccc(CC2SC(=O)NC2=O)cc1)C(=O)CCCCC(CCSC(=O)CCC(=O)O)SC(=O)CCC(=O)O` (stereo unspecified) gave an Activity of 60. The molecule also yielded an EC50 in data set [1] of 80 nM.

With `CN(CCCCC1CCSS1)CCOc1ccc(CC2SC(=O)NC2=O)cc1` (stereo unspecified) [listing 2 of 3 here], the concentration giving a half-maximal response (EC50) in data set [1] is 11100 nM.

The molecule `CN(CCOc1ccc(CC2SC(=O)NC2=O)cc1)C(=O)CCCCC(S)CCSC(=O)CCC(=O)O` (stereo unspecified) yielded an Activity in data set [2] of 177. Besides, the EC50 in [1] was 20 nM.

Regarding `CN(CCCCC1CCSS1)CCOc1ccc(CC2SC(=O)NC2=O)cc1` (stereo unspecified) [listing 3 of 3 here], a half-maximal response in data set [1] (EC50) required 28000 nM.

`CN(CCOc1ccc(CC2SC(=O)NC2=O)cc1)C(=O)CCCCC(CCSC(=O)CN)SC(=O)CN.Cl.Cl` (stereo unspecified): the outcome with 3T3-L1 and with T-cell [6] was Active. The molecule also had an Activity in [2] of 71. Also, the IC50 in the data set on HT-29 turned out to be 8 µM; with MCF7, 25 µM; with Keratinocyte, 1000 nM. The same molecule returned an Inhibition in the data set with T-cell [4] of 92%. The same molecule had an EC50 in data set [1] of 60 nM.

In the case of `CN(CCOc1ccc(CC2SC(=O)NC2=O)cc1)C(=O)CCCCC(S)CCS` (stereo unspecified), the Activity in [2] turned out to be 129. The result with T-cell [6] was Active. In the data set with T-cell [4], this molecule showed an Inhibition of 80%. In [1], this molecule displayed an EC50 of 75 nM.

In the case of `CN(CCOc1ccc(CC(=O)O)cc1Cl)C(=O)CCCCC1CCSS1` (stereo unspecified), the outcome in data set [3] was inactive.

As to `O=C(CCCCC1CCSS1)NCCOc1ccc(CC2SC(=O)NC2=O)cc1` (stereo unspecified), the EC50 in [1] is 10000 nM.

`CN(CCCOc1ccc(CC(=O)O)cc1Cl)C(=O)CCCCC1CCSS1` (stereo unspecified): in [1], a half-maximal effect (EC50) was put at 12300 nM.
